Measurements taken from patent publication US20220380763A1, “NUCLEIC ACID DELIVERY ENHANCER” (NATIONAL UNIVERSITY CORPORATION KOCHI UNIVERSITY, priority 2019, published 2022).

Tests used:
[1] = test system: S2-013 cells; assay: Matrigel invasion assay; type: cell-based, human; conditions: unmodified siRNA added with folic acid-cationic oligopeptide complex (Fol-Dab8A and Fol-Dab8B); versus control siRNA, P<0.05
Experimental: Each of the scrambled control siRNA, SNORA18 siRNA, NUP85 siRNA, WASF2 siRNA, and SNORA22 siRNA (all used in Example 5) with the folic acid-cationic oligopeptide complex added was added to the culture solution of S2-013 cells, and Matrigel invasion assay was performed after 48 hours.
4.0×10^4 cells were suspended in a serum-free medium and seeded in the upper chamber of a Matrigel Invasion Chamber (24-well plate, pore size: 8 μm, manufactured by Becton, Dickinson, and Company). A solvent containing 5% fetal bovine serum was added to the lower chamber. After the cells were incubated in the upper chamber for 20 hours, three independent areas were observed under a microscope, and the cells invading the lower chamber were counted. The same experiment was repeated three times, and the cell invasion ability of 52-013 cells into which each siRNA was taken up was compared.
The “*” denotes a significant difference at P<0.05 as compared to the control in the t-test.
Each of the scrambled control siRNA (SEQ ID NOs: 3 and 4), SNORA18 siRNA (SEQ ID NOs: 21 and 22), NUP85 siRNA (SEQ ID NOs: 23 and 24), WASF2 siRNA (SEQ ID NOs: 25 and 26), and SNORA22 siRNA (SEQ ID NOs: 27 and 28) was added with 2 equivalents of Dab8, Fol-Dab8A, or Fol-Dab8B to the culture solution of pancreatic cancer cell line S2-013 in culture. As a control, each of the control siRNA, SNORA18 siRNA, NUP85 siRNA, WASF2 siRNA, and SNORA22 siRNA was added alone to the culture solution of the S2-013 cells.
After 48 hours of culture, the Matrigel invasion assay was performed. In the Matrigel invasion assay, the number of cells that have migrated from the upper chamber to the lower chamber is shown. The “*” denotes a significant difference at P<0.05 as compared to the control in the t-test.

[2] = test system: S2-013 pancreatic cancer cells; assay: Lysosome (LysoTracker) and siRNA staining, confocal microscopy; type: cell-based, human; conditions: chemically-modified Alexa488-labeled siRNA with Fol-Dab8A or Fol-Dab8B, 2 equivalents, overnight

Substance	cell invasion [1]	intracellular localization of siRNA [2]
SNORA18 siRNA: double-stranded siRNA against SNORA18, SEQ ID NOs: 5 and 6 (Table 2) (chain 1 UUUACUUUACUCACAGGACUA; chain 2 UAGUCCUGUGAGUAAAGUAAA; listed as RNA, chemistry not given here)	significantly suppressed	–
NUP85 siRNA: double-stranded siRNA against NUP85, SEQ ID NOs: 7 and 8 (Table 2) (chain 1 CAGCGGCAGAUGACUGAACAA; chain 2 UUGUUCAGUCAUCUGCCGCUG; listed as RNA, chemistry not given here)	significantly suppressed	–
WASF2 siRNA: double-stranded siRNA against WASF2, SEQ ID NOs: 9 and 10 (Table 2) (chain 1 UAGGAUUAGAUCAUUAGCUCA; chain 2 UGAGCUAAUGAUCUAAUCCUA; listed as RNA, chemistry not given here)	significantly suppressed	–
SNORA22 siRNA: double-stranded siRNA against SNORA22, SEQ ID NOs: 11 and 12 (Table 2) (chain 1 CUUGGCUUUGACCCUGUGCUA; chain 2 UAGCACAGGGUCAAAGCCAAG; chemistry not given here)	significantly suppressed	localized in lysosomes
